Drawing on patent publication EP0751930B1 (G.D. SEARLE & CO., priority 1994, dated 1995), this text covers IC50 and inhibition for 4 molecules.

One may read the IC50 as the concentration that inhibits the measured activity by half.

Structures are written as SMILES.

In test [1] the target is T1, Recombinant human inducible nitric oxide synthase (hiNOS) (Homo sapiens, UniProt P35228).
T1 construct: made in house; host or cells: Sf9 insect cells (recombinant baculovirus)
In words: Citrulline Assay for Nitric Oxide Synthase (hiNOS). The format is biochemical. As to conditions: for IC50: conversion of [3H]-arginine to [3H]-citrulline, 30 µM L-arginine, 37°C, 15 minutes. The procedure:
(§1) Nitric oxide synthase activity was measured by monitoring the conversion of [^3H]-arginine to [^3H]-citrulline. Mouse inducible nitric oxide synthase (miNOS) was prepared from an extract of LPS-treated RAW 264.7 cells and partially purified by DEAE-Sepharose chromatography. Rat brain constitutive nitric oxide synthase (rnNOS) was prepared from an extract of rat cerebellum and partially purified by DEAE-Sepharose chromatography. Enzyme and inhibitors were incubated at 37°C for 15 minutes in a reaction volume of 100 µL with the following components added to start the reaction: 50 mM Tris (pH 7.6), 1 mg/ml bovine serum albumin, 1 mM DTT, 2 mM CaCl2, 10 µM FAD, 10 µM tetrahydrobiopterin, 30 µM L-arginine containing L-[2,3-^3H]-arginine at 300 cpm/pmole and 1 mM NADPH. For constitutive NOS, 50 nM calmodulin was also added. The reaction was terminated by addition of cold stop buffer containing 10 mM EGTA, 100 mM HEPES, pH 5.5 and 1 mM citrulline. [^3H]-Citrulline was separated by chromatography on Dowex 50W X-8 cation exchange resin and radioactivity determined with a liquid scintillation counter.
Recombinant human inducible nitric oxide synthase (hiNOS) was extracted from Sf9 insect cells (infected with recombinant baculoviruses encoding a cDNA for human inducible nitric oxide synthase which has been isolated and purified from a lambda Zapll cDNA library made from RNA isolated from a colon sample from a patient with ulcerative colitis) and partially purified by DEAE-chromatography.

In test [2] the target is T2, Mouse inducible nitric oxide synthase (miNOS) (Mus musculus, UniProt P29477).
T2 construct: prepared from an extract of LPS-treated RAW 264.7 cells and partially purified by DEAE-Sepharose chromatography; endogenous in cells; host or cells: LPS-treated RAW 264.7 cells
As to the kind of experiment: Citrulline Assay for Nitric Oxide Synthase (miNOS). Type of test: biochemical. As to conditions: for IC50: conversion of [3H]-arginine to [3H]-citrulline, 30 µM L-arginine, 37°C, 15 minutes. As for the experimental part: as §1

Another test concerns RAW 264.7 cells. In words: Raw Cell Nitrite Assay. The format is cell-based. As to conditions: Mus musculus, RAW264.7; for IC50: nitrite production by intracellular iNOs, LPS-induced RAW 264.7 cells, L-arginine 30 µM. The procedure:
RAW 264.7 cells are plated to confluency on a 96-well tissue culture plate grown overnight (17h) in the presence of LPS to induce NOS. A row of 3-6 wells were left untreated and served as controls for subtraction of nonspecific background. The media was removed from each well and the cells are washed twice with Krebs-Ringers-Hepes (25mM, pH 7.4) with 2 mg/ml glucose. The cells are then placed on ice and incubated with 50 µL of buffer containing L-arginine (30 µM) +/- inhibitors for lh. The assay is initiated by warming the plate to 37°C in a water bath for lh. Production of nitrite by intracellular iNOs is linear with time. To terminate the cellular assay, the plate of cells is placed on ice and the nitrite-containing buffer removed and analyzed for nitrite using a previously published fluorescent determination for nitrite. All values are the average of triplicate wells and are compared to a background-subtracted induced set of cells (100% value).

The target of test [3] is T3, Rat brain constitutive nitric oxide synthase (rnNOS) (Rattus norvegicus, UniProt P29476).
T3 construct: prepared from an extract of rat cerebellum and partially purified by DEAE-Sepharose chromatography; from tissue; host or cells: rat cerebellum
In words: Citrulline Assay for Nitric Oxide Synthase (rnNOS). The format is biochemical. As to conditions: for IC50: conversion of [3H]-arginine to [3H]-citrulline, 30 µM L-arginine, 50 nM calmodulin added. The procedure: as §1

T3 sequence (P29476 whole entry): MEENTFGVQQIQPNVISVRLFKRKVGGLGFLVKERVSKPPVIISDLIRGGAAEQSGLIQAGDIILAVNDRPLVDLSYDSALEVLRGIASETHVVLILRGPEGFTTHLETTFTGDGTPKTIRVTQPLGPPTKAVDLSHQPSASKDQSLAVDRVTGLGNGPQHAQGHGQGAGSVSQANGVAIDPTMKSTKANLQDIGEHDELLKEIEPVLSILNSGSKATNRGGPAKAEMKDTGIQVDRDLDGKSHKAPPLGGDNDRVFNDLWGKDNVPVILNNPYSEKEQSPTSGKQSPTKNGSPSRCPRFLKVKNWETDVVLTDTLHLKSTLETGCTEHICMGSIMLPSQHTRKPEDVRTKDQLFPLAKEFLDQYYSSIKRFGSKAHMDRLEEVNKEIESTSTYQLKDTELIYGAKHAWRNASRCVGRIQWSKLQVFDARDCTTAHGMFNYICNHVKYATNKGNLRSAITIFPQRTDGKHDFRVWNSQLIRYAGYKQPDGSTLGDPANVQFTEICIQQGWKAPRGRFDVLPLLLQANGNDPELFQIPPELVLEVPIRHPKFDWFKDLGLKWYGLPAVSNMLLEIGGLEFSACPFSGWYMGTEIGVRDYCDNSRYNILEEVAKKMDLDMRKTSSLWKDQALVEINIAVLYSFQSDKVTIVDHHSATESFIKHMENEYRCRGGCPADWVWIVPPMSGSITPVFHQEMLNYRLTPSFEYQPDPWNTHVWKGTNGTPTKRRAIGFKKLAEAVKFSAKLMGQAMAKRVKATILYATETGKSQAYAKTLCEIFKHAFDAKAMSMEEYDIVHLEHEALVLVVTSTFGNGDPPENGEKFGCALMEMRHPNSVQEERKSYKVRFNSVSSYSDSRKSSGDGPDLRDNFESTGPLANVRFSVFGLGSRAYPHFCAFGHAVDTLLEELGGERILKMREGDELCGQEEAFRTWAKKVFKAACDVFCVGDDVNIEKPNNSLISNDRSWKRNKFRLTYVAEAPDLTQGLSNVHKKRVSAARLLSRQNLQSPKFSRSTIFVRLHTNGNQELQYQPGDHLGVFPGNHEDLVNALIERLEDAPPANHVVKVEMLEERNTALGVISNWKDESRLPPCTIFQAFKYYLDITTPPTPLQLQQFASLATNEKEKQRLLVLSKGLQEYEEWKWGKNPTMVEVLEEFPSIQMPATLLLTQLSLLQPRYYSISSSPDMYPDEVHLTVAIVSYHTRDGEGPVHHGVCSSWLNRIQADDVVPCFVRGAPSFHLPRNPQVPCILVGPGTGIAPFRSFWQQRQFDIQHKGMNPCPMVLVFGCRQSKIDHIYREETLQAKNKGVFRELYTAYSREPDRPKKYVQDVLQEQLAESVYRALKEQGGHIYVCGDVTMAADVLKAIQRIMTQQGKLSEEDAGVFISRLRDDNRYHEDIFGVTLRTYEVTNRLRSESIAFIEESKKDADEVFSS
T2 sequence (P29477 whole entry): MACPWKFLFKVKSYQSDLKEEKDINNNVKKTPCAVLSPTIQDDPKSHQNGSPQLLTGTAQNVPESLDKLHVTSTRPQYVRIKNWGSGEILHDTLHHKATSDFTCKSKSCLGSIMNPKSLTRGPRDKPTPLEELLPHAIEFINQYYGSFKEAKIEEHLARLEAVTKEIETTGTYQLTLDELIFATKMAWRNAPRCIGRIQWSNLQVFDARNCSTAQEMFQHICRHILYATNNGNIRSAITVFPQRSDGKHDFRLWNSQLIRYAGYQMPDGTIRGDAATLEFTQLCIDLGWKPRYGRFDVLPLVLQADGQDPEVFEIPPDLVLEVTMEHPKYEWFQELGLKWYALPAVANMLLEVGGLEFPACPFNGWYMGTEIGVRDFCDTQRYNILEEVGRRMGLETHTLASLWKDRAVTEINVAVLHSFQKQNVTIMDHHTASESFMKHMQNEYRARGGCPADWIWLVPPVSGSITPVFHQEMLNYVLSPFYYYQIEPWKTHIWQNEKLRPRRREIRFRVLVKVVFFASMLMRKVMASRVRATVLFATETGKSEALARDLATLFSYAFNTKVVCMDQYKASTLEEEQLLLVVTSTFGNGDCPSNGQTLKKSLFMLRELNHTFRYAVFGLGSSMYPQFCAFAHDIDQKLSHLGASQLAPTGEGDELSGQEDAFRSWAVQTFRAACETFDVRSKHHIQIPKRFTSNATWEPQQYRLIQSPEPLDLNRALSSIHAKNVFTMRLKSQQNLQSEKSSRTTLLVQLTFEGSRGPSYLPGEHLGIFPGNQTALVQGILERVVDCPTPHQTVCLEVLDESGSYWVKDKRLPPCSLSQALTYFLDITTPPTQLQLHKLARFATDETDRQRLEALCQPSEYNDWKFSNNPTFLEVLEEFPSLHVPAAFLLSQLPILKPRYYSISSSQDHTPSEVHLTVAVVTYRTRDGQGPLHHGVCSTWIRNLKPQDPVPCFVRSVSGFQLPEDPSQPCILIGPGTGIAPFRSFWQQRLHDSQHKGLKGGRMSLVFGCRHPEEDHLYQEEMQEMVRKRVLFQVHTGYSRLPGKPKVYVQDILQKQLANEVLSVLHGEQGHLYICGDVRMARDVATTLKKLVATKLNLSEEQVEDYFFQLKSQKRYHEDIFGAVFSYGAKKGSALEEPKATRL

Regarding `CC(=N)NCC[Se]CC(N)C(=O)O` (racemic) [Example 3, Nε-iminoethyl-aminoethylselenocysteine], the IC50 in test [1] was determined as 35.5 µM; in test [2], 5 µM; with RAW 264.7 cells, 0.37 µM; in test [3] it was 229 µM.
On the same counts, the results for `CC(=N)NCCCCC(C)(N)C(=O)O` (racemic) [Example 2] are 26.6 µM, 7.2 µM, 52.5 µM and 193 µM.
As to `CC(=N)NCCCC(C)(N)C(=O)O` (stereo not shown) [Example 1], the IC50 in test [1] was 73.5 µM; in test [2] it was 34.9 µM; in the test on RAW 264.7 cells, 25 µM; in test [3] it was 356 µM.
On to `CC(=N)NCCCCC(N)(CO)C(=O)O` (racemic) [Example 4], for which the inhibition at 10 µM in test [1] (@ 10 µM, read-out: hiNos Inh.) is 39%; in test [2] (@ 10 µM, read-out: miNOS Inh.) it was 39%; with RAW 264.7 cells (@ 10 µM, read-out: Raw Cell Inh.) it was 8.6%; in test [3] (@ 10 µM, read-out: rnNOS Inh.), 8.6%.
